Experimental findings from PMC5097697 (Analytical biochemistry, 2016) are described below.

For orientation: Km means the concentration of substrate that gives half-maximal velocity.

For this assay, the system named is Sinapis alba myrosinase. Put plainly: HPLC progress curves. It counts as biochemical. The settings on record: pH 7.4, 37 °C; pooled wavelength data (220, 227, 235, 241 nm); myrosinase 8.83 U/ml.

For `O=S(=O)(O)O/N=C(/CC(c1ccccc1)c1ccccc1)S[C@@H]1O[C@H](CO)[C@@H](O)[C@H](O)[C@H]1O` [compound 5, 2,2-Diphenylethyl glucosinolate], the Km was found to be 798 ± 71 µM.
